Patent US10221163B2 (priority 2015, dated 2019)
Where two headings read alike, the source gives them in different places.

Key:
[1] = system: Pseudomonas aeruginosa MB9798 vs MB9799
Procedure, shortened: (§1)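 PAO1 pair, broth microdilution; fixed β-lactam (imipenem/ceftazidime) at ~CLSI breakpoint + fixed class A/C BLI for AmpC; serial MBLi titration; endpoint = MBLi conc. restoring susceptibility; MB9798:MB9799 ratio = efflux liability.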

[2] = system: Pseudomonas aeruginosa efflux+ (MB9798), IMP-1; assay type: cell-based; design: Concentration of metallo-β-lactamase inhibitor which restores susceptibility of efflux + (MB9798) strain to imipenem: unit not given here; details: C, D serine β-lactamase inhibitor closely related to relebactam; for P. aeruginosa expressing IMP-1, efflux + (MB9798) MITC95: concentration restoring susceptibility to imipenem at 2 μg/mL in the presence of a class A; for Concentration of metallo-β-lactamase inhibitor which restores susceptibility of efflux + (MB9798) strain to imipenem: imipenem at 2 μg/mL, in the presence of a class A
Procedure, shortened: as §1

[3] = system: Escherichia coli expressing NDM-1 (CLB30005, CLB30016); assay type: cell-based; details: with imipenem 1 μg/ml; for Escherichia coli expressing NDM-1 (CLB30016) MITC95: 95% inhibition of bacterial growth; for Escherichia coli MITC95: NDM-1 strain, 95% inhibition of growth
Procedure, shortened: (§2)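 Imipenem 1 μg/ml + inhibitor; MBL-expressing clinical strains in 1.1×CAMHB, inoculum from saline suspension diluted 1:100; 35° C, 22–24 h; absorbance read-out.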

[4] = system: Klebsiella pneumoniae expressing VIM-1 (IHMA599644); assay type: cell-based; details: for Klebsiella pneumoniae expressing VIM-1 (IHMA599644) MITC95: with imipenem 1 μg/ml, 95% inhibition of bacterial growth; for Klebsiella pneumoniae MITC95: VIM-1 strain IHMA599644, with imipenem 1 μg/ml, 95% inhibition of growth
Procedure, shortened: as §2

[5] = system: Serratia marcescens expressing IMP-1 (CL5741); assay type: cell-based; details: for Serratia marcescens expressing IMP-1 (CL5741) MITC95: with imipenem 1 μg/ml, 95% inhibition of bacterial growth; for Serratia marcescens MITC95: IMP-1 strain CL5741, with imipenem 1 μg/ml, 95% inhibition of growth
Procedure, shortened: as §2

[6] = system: Pseudomonas aeruginosa efflux− (MB9799), IMP-1; assay type: cell-based; details: C, D serine β-lactamase inhibitor closely related to relebactam; for P. aeruginosa expressing IMP-1, efflux − (MB9799) MITC95: concentration restoring susceptibility to imipenem at 2 μg/mL in the presence of a class A; for Concentration of metallo-β-lactamase inhibitor which restores susceptibility of efflux − (MB9799) strain to imipenem: imipenem at 2 μg/mL, in the presence of a class A
Procedure, shortened: as §1

NDM-1 = NDM-1 (Klebsiella pneumoniae, UniProt C7C422); assay: biochemical; assay type: biochemical; details: fluorescence assay, CCF2-FA substrate, 1 pM enzyme, 2 hours at 25° C.; read-out: NDM-1 IC50
NDM-1, sequence (C7C422 whole entry, looked up, species assumed): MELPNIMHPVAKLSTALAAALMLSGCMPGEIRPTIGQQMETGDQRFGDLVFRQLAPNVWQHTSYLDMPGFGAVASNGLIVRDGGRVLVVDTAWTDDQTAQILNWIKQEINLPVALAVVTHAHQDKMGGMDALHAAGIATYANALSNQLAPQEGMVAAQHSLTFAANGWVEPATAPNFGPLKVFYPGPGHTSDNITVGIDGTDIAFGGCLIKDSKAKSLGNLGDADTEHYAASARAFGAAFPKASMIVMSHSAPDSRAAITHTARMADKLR
Procedure, shortened: (§3)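 Test compound, enzyme and the FRET cephalosporin substrate CCF2-FA are incubated together for 2 hours at 25° C. Cleavage is followed by fluorescence, and IC50 values are derived from semi-logarithmic inhibition curves fitted with a 4-parameter model.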

IMP-1 = IMP-1 (Serratia marcescens, UniProt P52699); assay: biochemical; assay type: biochemical; details: fluorescence assay, CCF2-FA substrate, 2 pM enzyme, 2 hours at 25° C.; read-out: IMP-1 IC50
IMP-1, sequence (P52699 whole entry, looked up, species assumed): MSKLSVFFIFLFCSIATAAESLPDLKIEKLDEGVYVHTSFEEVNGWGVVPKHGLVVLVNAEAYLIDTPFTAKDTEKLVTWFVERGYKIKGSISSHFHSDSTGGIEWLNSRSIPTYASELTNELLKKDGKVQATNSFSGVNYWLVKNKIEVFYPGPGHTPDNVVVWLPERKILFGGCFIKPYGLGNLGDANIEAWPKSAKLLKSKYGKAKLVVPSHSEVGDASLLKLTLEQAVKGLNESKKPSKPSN
Procedure, shortened: as §3

VIM-1 = VIM-1 (Pseudomonas aeruginosa (strain ATCC 15692 / DSM 22644 / CIP 104116 / JCM 14847 / LMG 12228 / 1C / PRS 101 / PAO1), UniProt A0A0F7KYQ8); assay: biochemical; details: CCF2-FA substrate, 30 pM enzyme, 2 hours at 25° C.
Procedure, shortened: as §3

[7] = ratio MITC95 PA_9798/MITC95 PA_9799
[8] = fluorescence assay, read-out: VIM-1 IC50
[9] = fold difference between efflux+ (MB9798) and efflux− (MB9799) strains, imipenem at 2 μg/mL

Structure (SMILES) | Efflux ratio [1, 7] | P. aeruginosa expressing IMP-1, efflux + (MB9798) MITC95 [2] [µM] | Escherichia coli expressing NDM-1 (CLB30016) MITC95 [3] [µM] | Klebsiella pneumoniae expressing VIM-1 (IHMA599644) MITC95 [4] [µM] | Serratia marcescens expressing IMP-1 (CL5741) MITC95 [5] [µM] | P. aeruginosa expressing IMP-1, efflux − (MB9799) MITC95 [6] [µM] | IC50 (NDM-1) [pM] | IC50 (IMP-1) [pM] | IC50 (VIM-1; [8]) [pM] | Efflux ratio [1, 9] | Concentration of metallo-β-lactamase inhibitor which restores susceptibility of efflux + (MB9798) strain to imipenem [2] | Escherichia coli MITC95 [3] [µM] | Klebsiella pneumoniae MITC95 [4] [µM] | Serratia marcescens MITC95 [5] [µM] | Concentration of metallo-β-lactamase inhibitor which restores susceptibility of efflux − (MB9799) strain to imipenem [6] | IC50 (VIM-1; VIM-1 IC50, fluorescence assay) [pM]
Nc1nc2c(-c3ccc(S(=O)(=O)NCC4(F)CNC4)c(S(N)(=O)=O)c3-c3nnn[nH]3)cccc2s1 [Example 46, 4-(2-amino-1,3-benzothiazol-4-yl)-N^1-[(3-fluoroazetidin-3-yl)methyl]-3-(1H-tetrazol-5-yl)benzene-1,2-disulfonamide] | 0.50 | 0.7813 | 6.25 | 3.125 | 1.563 | 1.563 | 57.2 | 289 | 321 |  |  |  |  |  |  | 
NCCNS(=O)(=O)c1ccc(-c2ccc3[nH]c(CN)nc3c2)c(-c2nn[nH]n2)c1S(N)(=O)=O [Example 466, N1-(2-aminoethyl)-4-(2-(aminomethyl)-1H-benzo[d]imidazol-5-yl)-3-(2H-tetrazol-5-yl)benzene-1,2-disulfonamide] |  |  |  |  |  |  | 359 | 966 | 138 | 1.00 | 0.7813 | 0.7813 | 1.563 | 1.563 | 0.7813 | 
NCCNS(=O)(=O)c1ccc(-c2ccc3sc(CN)nc3c2)c(-c2nn[nH]n2)c1S(N)(=O)=O [Example 476, N1-(2-aminoethyl)-4-(2-(aminomethyl)benzo[d]thiazol-5-yl)-3-(2H-tetrazol-5-yl)benzene-1,2-disulfonamide] |  |  |  |  |  |  | 270 | 281 | 121 | 1.00 | 0.7813 | 1.563 | 1.563 | 0.7813 | 0.7813 | 
CN(C[C@@H]1CCCN1)S(=O)(=O)c1ccc(-c2cccc3sc(N)nc23)c(-c2nnn[nH]2)c1S(N)(=O)=O.O=CO [Example 121, (S)-2-((4-(2-aminobenzo[d]thiazol-4-yl)-N-methyl-2-sulfamoyl-3-(1H-tetrazol-5-yl)phenylsulfonamido)methyl)pyrrolidin-1-ium formate] | 4.00 | 12.5 | 6.25 | 12.5 | 3.125 | 3.125 | 1420 | 2840 | 7080 |  |  |  |  |  |  | 
Nc1nc2c(-c3ccc(S(=O)(=O)NCC4(F)CNC4)c(S(N)(=O)=O)c3-c3nnn[nH]3)cccc2s1.O=CO [Example 91, 3-(((4-(2-aminobenzo[d]thiazol-4-yl)-2-sulfamoyl-3-(1H-tetrazol-5-yl)phenyl)sulfonamido)methyl)-3-fluoroazetidin-1-ium formate] | 1.00 | 1.563 | 1.563 | 3.125 | 1.563 | 1.563 | 76.9 | 326 |  |  |  |  |  |  |  | 327
Nc1nc2c(-c3ccc(S(=O)(=O)N[C@H]4CNC[C@H]4N)c(S(N)(=O)=O)c3-c3nn[nH]n3)cccc2[nH]1 [Example 241] | 0.83 | 0.651 | 0.5208 | 1.302 | 1.042 | 0.7813 | 53.6 | 738 |  |  |  |  |  |  |  | 182
